Key:
[1] = system: peripheral blood T cells or TIL from melanoma patients; experiment: ELISPOT IFN-γ secretion assay, T-cell responses against HLA-A2 binding ML-IAP peptides; assay type: cell-based, human
Protocol: Peripheral blood was obtained from melanoma patients before vaccination and subsequent to a series of vaccinations. In order to identify peptide-specific T-cell precursors, peripheral blood lymphocytes (PBL) were used directly in the ELISPOT (designated direct ELISPOT). However, to extend the sensitivity of the ELISPOT assay, PBL were stimulated once in vitro prior to analysis^17,18. At day 0, PBL or crushed lymph nodes were thawed and plated in 2 ml/well at a concentration of 2×10^6 cells in 24-well plates (Nunc, Denmark) in X-vivo medium (Bio Whittaker, Walkersville, Md.), 5% heat-inactivated human serum, and 2 mM of L-glutamine in the presence of 10 μM of peptide. Two days later 20 IU/ml recombinant interleukin-2 (IL-2) (Chiron, Ratingen, Germany) was added to the cultures. The cultured cells were tested for reactivity in the ELISPOT on day 8.
The ELISPOT assay used to quantify peptide epitope specific interferon-7 releasing effector cells was adapted from Lalvani et al.^37, and Scheibenbogen et al.^38. Briefly, nitrocellulose bottomed 96-well plates (MultiScreen MAIP N45, Millipore) were coated overnight at 4° C. with 7.5 μg/ml of anti-IFN-γ antibody (1-D1K, Mabtech, Sweden) in 75 μl sterile PBS. Subsequently, the wells were washed six times with PBS, and non-specific binding were blocked by X-vivo medium for 2 hours at 37° C. Freshly isolated PBL or cells, which had been stimulated once in vitro, were added in duplicates at different cell concentrations (from 10^6 to 10^5 cells per well for non-stimulated PBL, and from 3×10^5-3×10^4 cells per well for PBL which had been stimulated once in vitro), in 100 μl X-vivo medium. Peptides were then added to each well to a final concentration of 2 μM and incubated overnight at 37° C.
The following day, media was discarded and the wells were washed (six times) with PBS containing 0.05% Tween (PBS/Tw) before the addition of biotinylated secondary antibody (7-B6-1-Biotin, Mabtech) at 0.5 μg/ml in 75 μl PBS containing 1% BSA and 0.02% NaN3 (PBS/BSA). The plates were incubated at room temperature for 2 hours. The wells were washed (six times) with PBS/Tw. Then 75 μl of Avidin-enzyme conjugate (AP-Avidin, Calbiochem) diluted 1:2000 in PBS/BSA were added to each well and incubated for 1 hour. The enzyme substrate NBT/BCIP was prepared freshly according to the manufacturers' instructions (Gibco, code 18280-016) and 75 μl were added to each well and incubated for 5-10 min. The reaction was terminated by washing with tap-water upon the emergence of dark purple spots. The spots were then counted using the AlphaImager System (Alpha Innotech, San Leandro, Calif., USA) and the peptide specific CTL frequency could be calculated as the number of spot-forming cells.
To extend the sensitivity of the ELISPOT assay, PBL were stimulated once in vitro prior to analysis^17,18. At day 0, PBL or crushed lymph nodes were thawed and plated in 2 ml/well at a concentration of 2×10^6 cells in 24-well plates (Nunc, Denmark) in X-vivo medium (Bio Whittaker, Walkersville, Md.), 5% heat-inactivated human serum, and 2 mM of L-glutamine in the presence of 10 μM of peptide. Two days later 20 IU/ml recombinant interleukin-2 (IL-2) (Chiron, Ratingen, Germany) was added to the cultures. The cultured cells were tested for reactivity in the ELISPOT on day 12.
The ELISPOT assay used to quantify peptide epitope-specific interferon-γ-releasing effector cells was performed as described previously^19. Briefly, nitrocellulose bottomed 96-well plates (MultiScreen MAIP N45, Millipore, Hedehusene, Denmark) were coated with anti-IFN-7 antibody (1-D1K, Mabtech, Nacka, Sweden). The wells were washed, blocked by X-vivo medium, and cells were added in duplicates at different cell concentrations. Peptides were then added to each well and the plates were incubated overnight. The following day, media was discarded and the wells were washed prior to addition of biotinylated secondary antibody (7-B6-1-Biotin, Mabtech). […]

[2] = system: primary melanoma sections; experiment: In situ detection of ML-IAP-reactive CTL with multimerized HLA-A2/peptide complexes; parameters: species or system human; conditions: sections of primary melanoma from six patients
Source text: In situ detection of ML-IAP-reactive CTL. Confocal laser scanning microscopy was used to detect CTL reacting with a Cy3-conjugated anti-CD8 antibody (red channel) and a fluorescein isothiocyanate-conjugated multimeric HLA-A2/ML-IAP280 construct (green channel) (first and second columns) or with a fluorescein isothiocyanate conjugated multimeric HLA-A2/ML-IAP245 construct (last column) in primary tumors from two HLA-A2-positive melanoma patients.
HLA-A2 and ML-IAP245/HLA-A2-specific monomers were multimerized using dextran molecules, which were conjugated with both streptavidin and fluorescein isothiocyanate. Multimerized MHC complexes were used to stain acetone-fixed, frozen material as described previously^11,48 and antigen-specific cells were visualized using a confocal laser microscope. Sections of primary melanoma from six patients were analyzed, and ML-IAP280- and ML-IAP245-reactive CTL could readily be detected in situ in the tumor microenvironment in two of the patients (FIG. 4).

CC(C)C[C@H](NC(=O)[C@@H](N)CCCNC(=N)N)C(=O)N[C@@H](CCC(N)=O)C(=O)N[C@@H](CCC(=O)O)C(=O)N[C@@H](CCC(=O)O)C(=O)N[C@@H](CCCNC(=N)N)C(=O)N[C@H](C(=O)N[C@@H](CS)C(=O)N[C@@H](CCCCN)C(=O)N[C@H](C(=O)O)C(C)C)[C@@H](C)O [ML-IAP245]
strength of spontaneous CTL response ([1]; TIL and PBL from melanoma patients, in words): Weaker spontaneous responses
TIL samples in which a response against the peptide was detected ([1]; TIL from melanoma patients (n=22), stimulated once in vitro with peptide, number of samples): five
PBL samples in which a response against the peptide was detected ([1]; peripheral blood T cells from melanoma patients (n=7), stimulated once in vitro with peptide, number of samples): one
patients with peptide-reactive CTL detected in situ in the tumor microenvironment [2]: two
